Experimental data reported in US20060062753A1, “Polymeric quaternary ammonium salts useful as corrosion inhibitors and biocides” (priority 2004, published 2006).

Legend:
[1] = tested on: planktonic sulfate reducing bacteria (SRB); assay: Biocide test API RP 38, sulfate reducing bacteria; assay type: cell-based; conditions: 4 hours contact at 37° C., growth monitored 15 days
Procedure: (§1) The effectiveness of the polymeric quaternary ammonium salts as a biocide was tested using the method shown in the API Recommended Practice for Biological Analysis of Subsurface Injection Waters, API RP 38, March, 1982, which is hereby fully incorporated by reference. The effectiveness of the salts as a biocide was tested using planktonic sulfate reducing bacteria (SRB), Aerobic Acid Producing Bacteria (AAPB) and Anaerobic Acid Producing (AnAP) Bacteria.
(§2) The desired concentrations of the polymeric quaternary ammonium salt biocide were added to clean sterilized bottles. Two bottles contained no biocides and served as controls. Under a N2 blanket, 10 mL of actively growing bacterial culture (24 hours old) was added to each of the bottles, and a 1 mL sample was taken and serially diluted into six bottles. The solutions were mixed well and the bottles were placed in an incubator at 37° C. for 4 hours. At the end of this period, 1 mL samples from each of the treated bottles were taken and serially diluted into 3 bottles. Samples from the control bottles were serially diluted into six bottles. All bottles were then placed in an incubator at 37° C. and bacterial growth was monitored for 15 days.

[2] = tested on: Aerobic Acid Producing Bacteria (AAPB); assay: Biocide test API RP 38, aerobic acid producing bacteria; assay type: cell-based; conditions: 4 hours contact at 37° C., growth monitored 15 days
Procedure: as §1, §2

[3] = tested on: Anaerobic Acid Producing (AnAP) Bacteria; assay: Biocide test API RP 38, anaerobic acid producing bacteria; assay type: cell-based; conditions: 4 hours contact at 37° C., growth monitored 15 days
Procedure: as §1, §2

[4] = Standard testing procedures for determining biodegradability
Source text: The present invention provides compositions comprising polymeric quaternary ammonium salts and methods of their use as a corrosion inhibitor and/or biocide. The polymeric quaternary ammonium salts described herein are highly biodegradable, thereby making these compositions highly desirable for use in corrosion systems that require careful consideration concerning environmental impact, such as on offshore drilling platforms. […] For purposes of comparison, sodium benzoate was about 85.5% biodegraded after 7 days, about 95% biodegraded after 14 days and 100% biodegraded after 28 days.

Compound: O=CCCCC=O [Glutaraldehyde]
- Bacterial cells/ml, sulfate reducing bacteria ([1]; dosage 31.3 ppm): 10^1 cells/ml
- Bacterial cells/ml, sulfate reducing bacteria ([1]; dosage 62.5 ppm): 0^ cells/ml
- Bacterial cells/ml, Aerobic Acid Producing Bacteria (AAP) ([2]; dosage 100 ppm): ≧10^3 cells/ml
- Bacterial cells/ml, Aerobic Acid Producing Bacteria (AAP) ([2]; dosage 200 ppm): ≧10^3 cells/ml
- Bacterial cells/ml, Aerobic Acid Producing Bacteria (AAP) ([2]; dosage 375 ppm): 10^2 cells/ml
- Bacterial cells/ml, Aerobic Acid Producing Bacteria (AAP) ([2]; dosage 500 ppm): 10^1 cells/ml
- Bacterial cells/ml, Anaerobic Acid Producing (AnAP) Bacteria ([3]; dosage 31.3 ppm): 10^2 cells/ml
- Bacterial cells/ml, Anaerobic Acid Producing (AnAP) Bacteria ([3]; dosage 62.5 ppm): ≧10^3 cells/ml
- Bacterial cells/ml, Anaerobic Acid Producing (AnAP) Bacteria ([3]; dosage 125 ppm): ≧10^3 cells/ml

Compound: O=C([O-])c1ccccc1.[Na+] [sodium benzoate]
- biodegraded ([4]; after 7 days): about 85.5%
- biodegraded ([4]; after 14 days): about 95%
- biodegraded ([4]; after 28 days): 100%
